Converted amounts (≈) assume the structure as drawn. Square brackets hold non-standard residues; d marks the D form. Peptide text beside a SMILES is read from it. * marks the point of attachment. ξ: configuration not given here. Phe(4-NO2) = N[C@@H](Cc1ccc([N+](=O)[O-])cc1)C(=O)O; Pro(3ξ,4ξ-(CH2)4) = O=C(O)[C@H]1NCC2CCCCC21; Phe(4-Cl) = N[C@@H](Cc1ccc(Cl)cc1)C(=O)O; Phe(4-F) = N[C@@H](Cc1ccc(F)cc1)C(=O)O; Tic = O=C(O)[C@@H]1Cc2ccccc2CN1; X5 = CC(=O)NC(=O)[C@H](CCCCN)N*; X1 = CC(=O)NC(=O)[C@H](CN)N*; ξE = NC(CCC(=O)O)C(=O)O; Dap = NC[C@H](N)C(=O)O; ξL = CC(C)CC(N)C(=O)O; GABA = NCCCC(=O)O; βAla = NCCC(=O)O
Experiments:
Format in all cases: functional
Enterococcus faecium = assay: Antibacterial activity against Enterococcus faecium MMC4 after 24 hrs by broth microdilution method; settings: MMC4, 24 h
Klebsiella aerogenes = assay: Antibacterial activity against Enterobacter aerogenes after 24 hrs by broth microdilution method
Pseudomonas aeruginosa = assay: Antibacterial activity against Pseudomonas aeruginosa PAO1 after 24 hrs by broth microdilution method; settings: PAO1, 24 h
Klebsiella pneumoniae = assay: Antibacterial activity against Klebsiella pneumoniae BAMS clinical isolate 07-18 after 24 hrs by broth microdilution method; settings: BAMS clinical isolate 07-18, 24 h
Acinetobacter baumannii = assay: Antibacterial activity against Acinetobacter baumannii WRAIR clinical isolate 13 after 24 hrs by broth microdilution method; settings: WRAIR clinical isolate 13, 24 h
Staphylococcus aureus = assay: Antibacterial activity against methicillin-sensitive Staphylococcus aureus UAMS-1 after 24 hrs by broth microdilution method; settings: UAMS-1, 24 h

MIC (Enterococcus faecium) [µg/mL]	MIC (Klebsiella aerogenes) [µg/mL]	MIC (Pseudomonas aeruginosa) [µg/mL]	MIC (Klebsiella pneumoniae) [µg/mL]	MIC (Acinetobacter baumannii) [µg/mL]	MIC (Staphylococcus aureus) [µg/mL]	SMILES	MBC (Enterococcus faecium) [µg/mL]	MBC (Klebsiella aerogenes) [µg/mL]	MBC (Pseudomonas aeruginosa) [µg/mL]	MBC (Klebsiella pneumoniae) [µg/mL]	MBC (Acinetobacter baumannii) [µg/mL]	MBC (Staphylococcus aureus) [µg/mL]
> 100	> 100	> 100	> 100	> 100	> 100	CSCC[C@H](NC(=O)C(CC(C)C)NC(=O)[C@H](CCC(=O)O)NC(=O)[C@@H]1C2CCCCC2CN1C(=O)[C@@H]1Cc2ccccc2CN1C(=O)[C@H](CCCCN)NC(=O)CNC(=O)[C@H](CC(C)C)NC(=O)CNC(=O)[C@@H]1C2CCCCC2CN1C(=O)[C@@H]1Cc2ccccc2CN1C(=O)C(CCC(=O)O)NC(=O)[C@H](CCCCN)NC(=O)CNC(=O)[C@H](CC(C)C)NC(=O)CNC(=O)[C@@H]1C2CCCCC2CN1C(=O)[C@@H]1Cc2ccccc2CN1C(=O)[C@H](CCCCN)NC(=O)CNC(C)=O)C(=O)NCC(=O)N[C@@H](CCC(=O)O)C(=O)N[C@@H](CCCNC(=N)N)C(N)=O (stereo partly drawn) (Ac-GK[Tic][Pro(3ξ,4ξ-(CH2)4)]GLGK[ξE][Tic][Pro(3ξ,4ξ-(CH2)4)]GLGK[Tic][Pro(3ξ,4ξ-(CH2)4)]E[ξL]MGER-NH2)	> 100	> 100	> 100	> 100	> 100	> 100
25 (≈ 10.1 µM)	> 100	> 100	100 (≈ 40.4 µM)	12.5 (≈ 5.05 µM)	100 (≈ 40.4 µM)	CC(=O)NCC(=O)N[C@@H](Cc1ccc(F)cc1)C(=O)N1Cc2ccccc2C[C@H]1C(=O)N1CC2CCCCC2[C@H]1C(=O)NCC(=O)N[C@@H](CCCCN)C(=O)N1Cc2ccccc2C[C@H]1C(=O)N1CC2CCCCC2[C@H]1C(=O)NCC(=O)N[C@@H](Cc1ccc(F)cc1)C(=O)N1Cc2ccccc2C[C@H]1C(=O)N1CC2CCCCC2[C@H]1C(=O)NCC(=O)N[C@@H](CCCCN)C(=O)N1Cc2ccccc2C[C@H]1C(=O)N[C@@H](CCCCN)C(=O)N[C@@H](CCCCN)C(=O)N[C@@H](CCCCN)C(=O)N[C@@H](CCCCN)C(N)=O (stereo partly drawn) (Ac-G[Phe(4-F)][Tic][Pro(3ξ,4ξ-(CH2)4)]GK[Tic][Pro(3ξ,4ξ-(CH2)4)]G[Phe(4-F)][Tic][Pro(3ξ,4ξ-(CH2)4)]GK[Tic]KKKK-NH2)	50 (≈ 20.2 µM)	> 100	> 100	100 (≈ 40.4 µM)	25 (≈ 10.1 µM)	100 (≈ 40.4 µM)
25 (≈ 10.2 µM)	> 100	> 100	100 (≈ 41 µM)	12.5 (≈ 5.12 µM)	> 100	CC(=O)N[C@@H](CCCCN)C(=O)N[C@@H](CCCCN)C(=O)N[C@@H](CCCCN)C(=O)N[C@@H](CCCCN)C(=O)NCC(=O)N[C@@H](Cc1ccccc1)C(=O)N1Cc2ccccc2C[C@H]1C(=O)N1CC2CCCCC2[C@H]1C(=O)NCC(=O)N[C@@H](CCCCN)C(=O)N1Cc2ccccc2C[C@H]1C(=O)N1CC2CCCCC2[C@H]1C(=O)NCC(=O)N[C@@H](Cc1ccccc1)C(=O)N1Cc2ccccc2C[C@H]1C(=O)N1CC2CCCCC2[C@H]1C(=O)NCC(=O)N[C@@H](CCCCN)C(=O)N1Cc2ccccc2C[C@H]1C(N)=O (stereo partly drawn) (Ac-KKKKGF[Tic][Pro(3ξ,4ξ-(CH2)4)]GK[Tic][Pro(3ξ,4ξ-(CH2)4)]GF[Tic][Pro(3ξ,4ξ-(CH2)4)]GK[Tic]-NH2)	> 100	> 100	> 100	100 (≈ 41 µM)	25 (≈ 10.2 µM)	> 100

The remaining lines, values behind:

SMILES	MIC (Enterococcus faecium) [µg/mL]	MIC (Klebsiella aerogenes) [µg/mL]	MIC (Pseudomonas aeruginosa) [µg/mL]	MIC (Klebsiella pneumoniae) [µg/mL]	MIC (Acinetobacter baumannii) [µg/mL]	MIC (Staphylococcus aureus) [µg/mL]	MBC (Enterococcus faecium) [µg/mL]	MBC (Klebsiella aerogenes) [µg/mL]	MBC (Pseudomonas aeruginosa) [µg/mL]	MBC (Klebsiella pneumoniae) [µg/mL]	MBC (Acinetobacter baumannii) [µg/mL]	MBC (Staphylococcus aureus) [µg/mL]
CC(=O)NCC(=O)N[C@@H](Cc1ccc(Cl)cc1)C(=O)N1Cc2ccccc2C[C@H]1C(=O)N1CC2CCCCC2[C@H]1C(=O)NCC(=O)N[C@@H](CCCCN)C(=O)N1Cc2ccccc2C[C@H]1C(=O)N1CC2CCCCC2[C@H]1C(=O)NCC(=O)N[C@@H](Cc1ccc(Cl)cc1)C(=O)N1Cc2ccccc2C[C@H]1C(=O)N1CC2CCCCC2[C@H]1C(=O)NCC(=O)N[C@@H](CCCCN)C(=O)N1Cc2ccccc2C[C@H]1C(=O)N[C@@H](CCCCN)C(=O)N[C@@H](CCCCN)C(=O)N[C@@H](CCCCN)C(=O)N[C@@H](CCCCN)C(N)=O (stereo partly drawn) (Ac-G[Phe(4-Cl)][Tic][Pro(3ξ,4ξ-(CH2)4)]GK[Tic][Pro(3ξ,4ξ-(CH2)4)]G[Phe(4-Cl)][Tic][Pro(3ξ,4ξ-(CH2)4)]GK[Tic]KKKK-NH2)	6.25 (≈ 2.49 µM)	> 100	50 (≈ 19.9 µM)	50 (≈ 19.9 µM)	6.25 (≈ 2.49 µM)	25 (≈ 9.96 µM)	25 (≈ 9.96 µM)	> 100	50 (≈ 19.9 µM)	100 (≈ 39.8 µM)	25 (≈ 9.96 µM)	50 (≈ 19.9 µM)
CC(=O)NCC(=O)N[C@@H](Cc1ccc([N+](=O)[O-])cc1)C(=O)N1Cc2ccccc2C[C@H]1C(=O)N1CC2CCCCC2[C@H]1C(=O)NCC(=O)N[C@@H](CCCCN)C(=O)N1Cc2ccccc2C[C@H]1C(=O)N1CC2CCCCC2[C@H]1C(=O)NCC(=O)N[C@@H](Cc1ccc([N+](=O)[O-])cc1)C(=O)N1Cc2ccccc2C[C@H]1C(=O)N1CC2CCCCC2[C@H]1C(=O)NCC(=O)N[C@@H](CCCCN)C(=O)N1Cc2ccccc2C[C@H]1C(=O)N[C@@H](CCCCN)C(=O)N[C@@H](CCCCN)C(=O)N[C@@H](CCCCN)C(=O)N[C@@H](CCCCN)C(N)=O (stereo partly drawn) (Ac-G[Phe(4-NO2)][Tic][Pro(3ξ,4ξ-(CH2)4)]GK[Tic][Pro(3ξ,4ξ-(CH2)4)]G[Phe(4-NO2)][Tic][Pro(3ξ,4ξ-(CH2)4)]GK[Tic]KKKK-NH2)	25 (≈ 9.88 µM)	100 (≈ 39.5 µM)	50 (≈ 19.8 µM)	50 (≈ 19.8 µM)	12.5 (≈ 4.94 µM)	100 (≈ 39.5 µM)	50 (≈ 19.8 µM)	100 (≈ 39.5 µM)	100 (≈ 39.5 µM)	50 (≈ 19.8 µM)	12.5 (≈ 4.94 µM)	> 100
CC(=O)N[C@@H](CCCCN)C(=O)N[C@@H](CC(C)C)C(=O)N1Cc2ccccc2C[C@H]1C(=O)N1CC2CCCCC2[C@H]1C(=O)N[C@@H](CCCCN)C(=O)N1Cc2ccccc2C[C@H]1C(=O)N1CC2CCCCC2[C@H]1C(=O)N[C@@H](Cc1ccccc1)C(=O)N1Cc2ccccc2C[C@H]1C(=O)N1CC2CCCCC2[C@H]1C(=O)N[C@@H](CCCCN)C(=O)N1Cc2ccccc2C[C@H]1C(=O)N1CC2CCCCC2[C@H]1C(=O)N[C@@H](Cc1ccccc1)C(=O)N1Cc2ccccc2C[C@H]1C(=O)N1CC2CCCCC2[C@H]1C(=O)N[C@@H](CCCCN)C(=O)N1Cc2ccccc2C[C@H]1C(=O)N1CC2CCCCC2[C@H]1C(=O)N[C@@H](CCCCN)C(=O)N[C@@H](CCCCN)C(=O)N[C@@H](CCCCN)C(=O)N[C@@H](CCCCN)C(N)=O (stereo partly drawn) (Ac-KL[Tic][Pro(3ξ,4ξ-(CH2)4)]K[Tic][Pro(3ξ,4ξ-(CH2)4)]F[Tic][Pro(3ξ,4ξ-(CH2)4)]K[Tic][Pro(3ξ,4ξ-(CH2)4)]F[Tic][Pro(3ξ,4ξ-(CH2)4)]K[Tic][Pro(3ξ,4ξ-(CH2)4)]KKKK-NH2)	12.5 (≈ 3.73 µM)	> 100	> 100	> 100	100 (≈ 29.8 µM)	50 (≈ 14.9 µM)	25 (≈ 7.45 µM)	> 100	> 100	> 100	100 (≈ 29.8 µM)	50 (≈ 14.9 µM)
CC(=O)NCCCC(=O)N[C@@H](Cc1ccccc1)C(=O)N1Cc2ccccc2C[C@H]1C(=O)N1CC2CCCCC2[C@H]1C(=O)NCCCC(=O)N[C@@H](CCCCN)C(=O)N1Cc2ccccc2C[C@H]1C(=O)N1CC2CCCCC2[C@H]1C(=O)NCCCC(=O)N[C@@H](Cc1ccccc1)C(=O)N1Cc2ccccc2C[C@H]1C(=O)N1CC2CCCCC2[C@H]1C(=O)NCCCC(=O)N[C@@H](CCCCN)C(=O)N1Cc2ccccc2C[C@H]1C(=O)N[C@@H](CCCCN)C(=O)N[C@@H](CCCCN)C(=O)N[C@@H](CCCCN)C(=O)N[C@@H](CCCCN)C(N)=O (stereo partly drawn) (Ac-[GABA]F[Tic][Pro(3ξ,4ξ-(CH2)4)][GABA]K[Tic][Pro(3ξ,4ξ-(CH2)4)][GABA]F[Tic][Pro(3ξ,4ξ-(CH2)4)][GABA]K[Tic]KKKK-NH2)	12.5 (≈ 4.9 µM)	> 100	> 100	100 (≈ 39.2 µM)	12.5 (≈ 4.9 µM)	> 100	25 (≈ 9.79 µM)	> 100	> 100	100 (≈ 39.2 µM)	25 (≈ 9.79 µM)	> 100
CC(=O)NCCC(=O)N[C@@H](Cc1ccccc1)C(=O)N1Cc2ccccc2C[C@H]1C(=O)N1CC2CCCCC2[C@H]1C(=O)NCCC(=O)N[C@@H](CCCCN)C(=O)N1Cc2ccccc2C[C@H]1C(=O)N1CC2CCCCC2[C@H]1C(=O)NCCC(=O)N[C@@H](Cc1ccccc1)C(=O)N1Cc2ccccc2C[C@H]1C(=O)N1CC2CCCCC2[C@H]1C(=O)NCCC(=O)N[C@@H](CCCCN)C(=O)N1Cc2ccccc2C[C@H]1C(=O)N[C@@H](CCCCN)C(=O)N[C@@H](CCCCN)C(=O)N[C@@H](CCCCN)C(=O)N[C@@H](CCCCN)C(=O)NC(C)=O (stereo partly drawn) (Ac-[βAla]F[Tic][Pro(3ξ,4ξ-(CH2)4)][βAla]K[Tic][Pro(3ξ,4ξ-(CH2)4)][βAla]F[Tic][Pro(3ξ,4ξ-(CH2)4)][βAla]K[Tic]KKK-X5)	25 (≈ 9.85 µM)	> 100	> 100	> 100	12.5 (≈ 4.92 µM)	> 100	50 (≈ 19.7 µM)	> 100	> 100	> 100	25 (≈ 9.85 µM)	> 100
CC(=O)NCCC(=O)N[C@@H](Cc1ccc(F)cc1)C(=O)N1Cc2ccccc2C[C@H]1C(=O)N1CC2CCCCC2[C@H]1C(=O)NCCC(=O)N[C@@H](CN)C(=O)N1Cc2ccccc2C[C@H]1C(=O)N1CC2CCCCC2[C@H]1C(=O)NCCC(=O)N[C@@H](Cc1ccc(F)cc1)C(=O)N1Cc2ccccc2C[C@H]1C(=O)N1CC2CCCCC2[C@H]1C(=O)NCCC(=O)N[C@@H](CN)C(=O)N1Cc2ccccc2C[C@H]1C(=O)N[C@@H](CN)C(=O)N[C@@H](CN)C(=O)N[C@@H](CN)C(=O)N[C@@H](CN)C(=O)NC(C)=O (stereo partly drawn) (Ac-[βAla][Phe(4-F)][Tic][Pro(3ξ,4ξ-(CH2)4)][βAla][Dap][Tic][Pro(3ξ,4ξ-(CH2)4)][βAla][Phe(4-F)][Tic][Pro(3ξ,4ξ-(CH2)4)][βAla][Dap][Tic][Dap][Dap][Dap]-X1)	50 (≈ 21.5 µM)	25 (≈ 10.8 µM)	25 (≈ 10.8 µM)	12.5 (≈ 5.38 µM)	12.5 (≈ 5.38 µM)	> 100	> 100	25 (≈ 10.8 µM)	50 (≈ 21.5 µM)	25 (≈ 10.8 µM)	25 (≈ 10.8 µM)	> 100

From ChEMBL document CHEMBL2375306, “Antimicrobial peptides containing unnatural amino acid exhibit potent bactericidal activity against ESKAPE pathogens” (Bioorg Med Chem, 2013)
